According to the NIST ThermoML archive (doi:10.1021/acs.jced.5b00980):
Numbers after ± are expanded uncertainties.

Assays:
[1] = for mass density: 101.33 kPa, Liquid, Vibrating tube method
[2] = activity coefficient (dimensionless); of the first substance listed, at infinite dilution; xn = mol fraction of the nth substance listed; settings: 100 kPa, Liquid, Chromatography, x1 = 0

Structure (SMILES) | activity coefficient ([2]; 328.15 K) | activity coefficient ([2]; 338.15 K) | activity coefficient ([2]; 348.15 K) | activity coefficient ([2]; 358.15 K) | activity coefficient ([2]; 368.15 K) | other results
CCCC[P+](CC)(CCCC)CCCC.CCOP(=O)([O-])OCC [tributylethylphosphonium diethylphosphate] | – | – | – | – | – | mass density ([1]; 298.15 K): 996.1 ± 10 kg/m3; mass density ([1]; 303.15 K): 992.58 ± 10 kg/m3; mass density ([1]; 308.15 K): 989.06 ± 10 kg/m3; mass density ([1]; 313.15 K): 985.55 ± 10 kg/m3; mass density ([1]; 318.15 K): 982.04 ± 10 kg/m3; mass density ([1]; 323.15 K): 978.53 ± 10 kg/m3; mass density ([1]; 328.15 K): 975.03 ± 10 kg/m3; mass density ([1]; 333.15 K): 971.53 ± 10 kg/m3; mass density ([1]; 338.15 K): 968.03 ± 10 kg/m3; mass density ([1]; 343.15 K): 964.53 ± 10 kg/m3; mass density ([1]; 348.15 K): 961.01 ± 10 kg/m3; mass density ([1]; 353.15 K): 957.5 ± 10 kg/m3; mass density ([1]; 358.15 K): 954 ± 10 kg/m3; mass density ([1]; 363.15 K): 950.49 ± 10 kg/m3; mass density ([1]; 368.15 K): 946.98 ± 10 kg/m3; Glass transition temperature ([1]; Glass, DSC): -71.34 ± 1 °C
CCc1ccccc1 [ethylbenzene] + CCCC[P+](CC)(CCCC)CCCC.CCOP(=O)([O-])OCC | 1.55 ± 0.1 | 1.52 ± 0.1 | 1.49 ± 0.1 | 1.46 ± 0.1 | 1.44 ± 0.09 | –
c1ccsc1 [thiophene] + CCCC[P+](CC)(CCCC)CCCC.CCOP(=O)([O-])OCC | 0.58 ± 0.041 | 0.587 ± 0.042 | 0.595 ± 0.042 | 0.601 ± 0.042 | 0.607 ± 0.042 | –
C=CCCCC [hex-1-ene] + CCCC[P+](CC)(CCCC)CCCC.CCOP(=O)([O-])OCC | 2.59 ± 0.18 | 2.54 ± 0.17 | 2.49 ± 0.17 | 2.44 ± 0.17 | 2.4 ± 0.16 | –
C1CCCCC1 [cyclohexane] + CCCC[P+](CC)(CCCC)CCCC.CCOP(=O)([O-])OCC | 2.17 ± 0.15 | 2.13 ± 0.14 | 2.09 ± 0.14 | 2.05 ± 0.14 | 2.01 ± 0.14 | –
C#CCCCC [1-hexyne] + CCCC[P+](CC)(CCCC)CCCC.CCOP(=O)([O-])OCC | 0.849 ± 0.054 | 0.893 ± 0.057 | 0.936 ± 0.059 | 0.979 ± 0.061 | 1.02 ± 0.06 | –
Cc1ccccc1C [1,2-dimethylbenzene] + CCCC[P+](CC)(CCCC)CCCC.CCOP(=O)([O-])OCC | 1.55 ± 0.1 | 1.52 ± 0.1 | 1.5 ± 0.1 | 1.47 ± 0.1 | 1.45 ± 0.1 | –
Cc1cccc(C)c1 [1,3-dimethylbenzene] + CCCC[P+](CC)(CCCC)CCCC.CCOP(=O)([O-])OCC | 1.7 ± 0.11 | 1.67 ± 0.11 | 1.64 ± 0.11 | 1.61 ± 0.11 | 1.59 ± 0.11 | –
CCCCC [pentane] + CCCC[P+](CC)(CCCC)CCCC.CCOP(=O)([O-])OCC | 2.91 ± 0.2 | 2.85 ± 0.19 | 2.8 ± 0.19 | 2.75 ± 0.19 | 2.7 ± 0.18 | –
C#CCCC [1-pentyne] + CCCC[P+](CC)(CCCC)CCCC.CCOP(=O)([O-])OCC | 0.725 ± 0.048 | 0.762 ± 0.05 | 0.797 ± 0.052 | 0.833 ± 0.054 | 0.866 ± 0.055 | –
CC(C)=O [acetone] + CCCC[P+](CC)(CCCC)CCCC.CCOP(=O)([O-])OCC | 0.835 ± 0.054 | 0.827 ± 0.053 | 0.822 ± 0.053 | 0.814 ± 0.053 | 0.809 ± 0.052 | –
CO [methanol] + CCCC[P+](CC)(CCCC)CCCC.CCOP(=O)([O-])OCC | – | 0.022 | 0.025 | 0.028 | 0.03 | –
CCOCC [diethyl ether] + CCCC[P+](CC)(CCCC)CCCC.CCOP(=O)([O-])OCC | 1.79 ± 0.12 | 1.77 ± 0.12 | 1.75 ± 0.12 | 1.73 ± 0.12 | 1.71 ± 0.11 | –
